# Laboratory results as given in ChEMBL document CHEMBL3991601, “The target landscape of clinical kinase drugs” (Science, 2017).
# Where a name gives a salt, the structure may show the parent alone. Calls of active or inactive are those of the source. For most assays here, no stated cut-off is given here; in the data, actives have a measured Kd and inactives only a lower limit.
# Legend:
# [1] = biological target: Proto-oncogene tyrosine-protein kinase Src (Homo sapiens, UniProt P12931)
# [2] = biological target: cAMP-dependent protein kinase catalytic subunit alpha (Homo sapiens, UniProt P17612)
# [3] = biological target: T1, Serine/threonine-protein kinase TAO2 (Homo sapiens, UniProt Q9UL54)
# T1 sequence (Q9UL54 whole entry): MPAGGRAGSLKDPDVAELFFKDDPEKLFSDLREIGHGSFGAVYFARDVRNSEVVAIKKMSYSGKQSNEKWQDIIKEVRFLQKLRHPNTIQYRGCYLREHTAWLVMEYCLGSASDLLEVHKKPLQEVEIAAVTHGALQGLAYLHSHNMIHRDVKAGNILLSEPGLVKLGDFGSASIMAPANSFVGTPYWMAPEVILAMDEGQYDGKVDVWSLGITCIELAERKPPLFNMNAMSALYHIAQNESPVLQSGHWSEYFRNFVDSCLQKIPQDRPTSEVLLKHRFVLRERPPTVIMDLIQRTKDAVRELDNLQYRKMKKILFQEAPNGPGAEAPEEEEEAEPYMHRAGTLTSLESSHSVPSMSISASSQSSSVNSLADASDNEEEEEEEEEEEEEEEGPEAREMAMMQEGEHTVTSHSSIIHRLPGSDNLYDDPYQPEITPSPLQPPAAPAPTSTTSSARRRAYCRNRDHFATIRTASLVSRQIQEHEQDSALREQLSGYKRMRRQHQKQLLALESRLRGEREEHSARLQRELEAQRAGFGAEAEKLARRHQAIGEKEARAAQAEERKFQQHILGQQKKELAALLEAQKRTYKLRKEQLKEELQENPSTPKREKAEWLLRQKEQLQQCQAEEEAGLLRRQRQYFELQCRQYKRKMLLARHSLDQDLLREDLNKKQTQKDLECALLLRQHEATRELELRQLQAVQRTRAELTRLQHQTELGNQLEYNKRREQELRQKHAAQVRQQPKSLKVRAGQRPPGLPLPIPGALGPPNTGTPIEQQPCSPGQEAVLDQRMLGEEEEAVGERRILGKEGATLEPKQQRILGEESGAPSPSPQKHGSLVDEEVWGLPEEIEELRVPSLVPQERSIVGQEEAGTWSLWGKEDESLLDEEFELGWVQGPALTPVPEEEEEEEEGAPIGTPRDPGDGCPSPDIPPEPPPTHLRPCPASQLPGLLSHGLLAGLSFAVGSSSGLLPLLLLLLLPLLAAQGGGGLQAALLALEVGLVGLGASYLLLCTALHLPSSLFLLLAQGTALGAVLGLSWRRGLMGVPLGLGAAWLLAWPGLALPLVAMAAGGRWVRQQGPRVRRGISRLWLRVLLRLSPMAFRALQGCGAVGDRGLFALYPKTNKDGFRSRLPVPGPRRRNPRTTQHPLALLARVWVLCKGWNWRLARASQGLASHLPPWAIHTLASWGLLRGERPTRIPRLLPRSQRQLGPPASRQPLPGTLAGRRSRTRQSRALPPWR
# Ephrin type-A receptor 1 = biological target: T2, Ephrin type-A receptor 1 (Homo sapiens, UniProt P21709)
# T2 sequence (P21709 whole entry): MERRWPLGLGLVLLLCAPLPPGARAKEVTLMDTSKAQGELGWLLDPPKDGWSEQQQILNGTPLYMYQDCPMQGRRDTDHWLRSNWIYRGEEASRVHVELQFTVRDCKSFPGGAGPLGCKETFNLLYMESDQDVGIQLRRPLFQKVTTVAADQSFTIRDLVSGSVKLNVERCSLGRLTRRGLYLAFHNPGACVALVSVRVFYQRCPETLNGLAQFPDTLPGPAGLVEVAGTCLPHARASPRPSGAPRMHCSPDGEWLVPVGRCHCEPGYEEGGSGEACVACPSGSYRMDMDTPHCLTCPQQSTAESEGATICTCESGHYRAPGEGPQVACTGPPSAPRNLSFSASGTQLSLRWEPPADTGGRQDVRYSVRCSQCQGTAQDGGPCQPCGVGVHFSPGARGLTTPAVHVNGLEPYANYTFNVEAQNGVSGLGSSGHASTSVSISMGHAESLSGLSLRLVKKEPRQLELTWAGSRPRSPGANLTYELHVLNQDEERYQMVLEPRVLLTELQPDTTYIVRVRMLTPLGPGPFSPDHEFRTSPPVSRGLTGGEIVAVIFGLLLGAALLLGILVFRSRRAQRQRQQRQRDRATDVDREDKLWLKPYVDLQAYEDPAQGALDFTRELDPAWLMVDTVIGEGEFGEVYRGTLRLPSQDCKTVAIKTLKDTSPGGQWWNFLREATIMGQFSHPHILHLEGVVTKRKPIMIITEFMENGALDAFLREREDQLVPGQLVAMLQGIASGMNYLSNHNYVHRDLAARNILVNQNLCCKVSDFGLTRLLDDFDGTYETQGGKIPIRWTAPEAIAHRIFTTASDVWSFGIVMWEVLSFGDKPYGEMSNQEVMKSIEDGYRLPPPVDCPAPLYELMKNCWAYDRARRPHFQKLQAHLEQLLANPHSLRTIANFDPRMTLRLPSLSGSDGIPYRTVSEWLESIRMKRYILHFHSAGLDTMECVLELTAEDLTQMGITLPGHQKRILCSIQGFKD
# [4] = biological target: Protein kinase C delta type (Homo sapiens, UniProt Q05655)
# [5] = biological target: T3, STE20-related kinase adapter protein alpha (Homo sapiens, UniProt Q7RTN6)
# T3 sequence (Q7RTN6 whole entry): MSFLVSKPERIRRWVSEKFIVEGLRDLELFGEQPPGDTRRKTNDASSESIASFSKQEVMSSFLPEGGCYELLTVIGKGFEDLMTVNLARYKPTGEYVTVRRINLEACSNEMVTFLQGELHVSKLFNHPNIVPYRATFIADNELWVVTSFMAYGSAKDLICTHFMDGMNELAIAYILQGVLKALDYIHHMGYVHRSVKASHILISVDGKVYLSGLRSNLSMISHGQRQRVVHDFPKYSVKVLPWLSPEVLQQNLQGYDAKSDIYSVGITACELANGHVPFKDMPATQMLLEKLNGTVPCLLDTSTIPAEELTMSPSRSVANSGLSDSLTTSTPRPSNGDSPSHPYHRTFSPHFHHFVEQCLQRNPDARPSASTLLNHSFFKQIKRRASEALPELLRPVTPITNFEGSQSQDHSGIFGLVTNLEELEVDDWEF
# Chain of Proto-oncogene tyrosine-protein kinase Src (P12931 2-536 limits assumed): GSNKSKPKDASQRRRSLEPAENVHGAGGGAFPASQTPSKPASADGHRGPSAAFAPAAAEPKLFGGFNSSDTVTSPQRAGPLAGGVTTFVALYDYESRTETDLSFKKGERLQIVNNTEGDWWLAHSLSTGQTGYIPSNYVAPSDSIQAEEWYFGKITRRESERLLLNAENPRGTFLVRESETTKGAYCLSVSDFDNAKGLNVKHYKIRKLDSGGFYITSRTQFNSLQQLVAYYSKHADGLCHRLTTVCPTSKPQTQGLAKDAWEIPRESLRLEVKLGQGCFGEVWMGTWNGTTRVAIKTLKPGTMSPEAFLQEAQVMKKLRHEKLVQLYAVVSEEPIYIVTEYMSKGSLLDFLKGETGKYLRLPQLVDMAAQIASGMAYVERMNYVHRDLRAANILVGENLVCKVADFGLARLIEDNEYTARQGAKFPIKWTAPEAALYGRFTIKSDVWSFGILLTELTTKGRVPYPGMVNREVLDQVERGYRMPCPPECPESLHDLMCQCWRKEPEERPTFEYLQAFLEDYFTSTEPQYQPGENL
# Chain of Protein kinase C delta type (Q05655 whole entry): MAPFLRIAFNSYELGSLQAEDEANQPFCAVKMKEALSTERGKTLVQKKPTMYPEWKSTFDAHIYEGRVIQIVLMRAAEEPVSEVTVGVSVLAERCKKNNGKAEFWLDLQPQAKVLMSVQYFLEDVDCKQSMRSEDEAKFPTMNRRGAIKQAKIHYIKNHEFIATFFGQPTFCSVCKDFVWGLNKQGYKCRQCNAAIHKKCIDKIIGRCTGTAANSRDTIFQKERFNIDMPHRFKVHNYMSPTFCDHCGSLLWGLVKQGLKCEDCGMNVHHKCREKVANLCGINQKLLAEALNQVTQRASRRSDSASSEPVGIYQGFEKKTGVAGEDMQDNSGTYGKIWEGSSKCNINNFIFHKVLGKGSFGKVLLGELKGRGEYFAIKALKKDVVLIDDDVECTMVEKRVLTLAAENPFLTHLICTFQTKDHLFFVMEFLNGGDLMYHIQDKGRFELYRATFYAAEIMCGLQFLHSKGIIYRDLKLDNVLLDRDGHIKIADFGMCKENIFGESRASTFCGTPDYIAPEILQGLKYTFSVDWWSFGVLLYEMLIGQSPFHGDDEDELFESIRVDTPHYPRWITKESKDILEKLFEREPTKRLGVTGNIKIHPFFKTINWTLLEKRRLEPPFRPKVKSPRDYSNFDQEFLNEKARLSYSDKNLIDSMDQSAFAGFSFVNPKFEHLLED
Kd [1],Kd [2],Kd [3],Kd (Ephrin type-A receptor 1),Kd [4],Kd [5],SMILES
> 30 µM (inactive),> 30 µM (inactive),> 30 µM (inactive),> 30 µM (inactive),> 30 µM (inactive),> 30 µM (inactive),COc1cc2ncnc(Oc3cccc(NC(=O)Nc4cc(C(C)(C)C(F)(F)F)on4)c3)c2cc1OC [CEP-32496]
> 30 µM (inactive),> 30 µM (inactive),> 30 µM (inactive),> 30 µM (inactive),> 30 µM (inactive),> 30 µM (inactive),Cc1cc(Nc2ncc(Cl)c(Nc3ccccc3S(=O)(=O)C(C)C)n2)c(OC(C)C)cc1C1CCNCC1 [CERITINIB]
> 30 µM (inactive),> 30 µM (inactive),> 30 µM (inactive),> 30 µM (inactive),> 30 µM (inactive),> 30 µM (inactive),COCC(=O)NC/C=C/c1ccc2ncnc(Nc3ccc(Oc4ccc(C)nc4)c(C)c3)c2c1 [CP-724714]
> 30 µM (inactive),> 30 µM (inactive),> 30 µM (inactive),> 30 µM (inactive),> 30 µM (inactive),> 30 µM (inactive),C#Cc1cccc(Nc2ncnc3cc(OC)c(OCCCCCCC(=O)NO)cc23)c1 [CUDC-101]
> 30 µM (inactive),> 30 µM (inactive),2.22 µM (active),> 30 µM (inactive),3.82 µM (active),> 30 µM (inactive),CCS(=O)(=O)N1CCN(c2ccc(Nc3ncc(C(N)=O)c(NC4CC4)n3)cc2)CC1 [Cerdulatinib Hydrochloride]
> 30 µM (inactive),> 30 µM (inactive),> 30 µM (inactive),> 30 µM (inactive),> 30 µM (inactive),> 30 µM (inactive),COc1ccc(S(=O)(=O)N(C(C)=O)c2ccccc2/C=C/c2cc[n+]([O-])cc2)cc1 [HMN-214]
> 30 µM (inactive),> 30 µM (inactive),> 30 µM (inactive),> 30 µM (inactive),> 30 µM (inactive),> 30 µM (inactive),CNC(=O)c1cccc2cc(Oc3ccnc4cc(OCC5(N)CC5)c(OC)cc34)ccc12 [LUCITANIB]
5.31 µM (active),> 30 µM (inactive),5.25 µM (active),> 30 µM (inactive),> 30 µM (inactive),> 30 µM (inactive),CNC(=O)c1nn(C)c2c1C(C)(C)Cc1cnc(Nc3ccc(N4CCN(C)CC4)cc3)nc1-2 [MILCICLIB]
> 30 µM (inactive),> 30 µM (inactive),> 30 µM (inactive),> 30 µM (inactive),> 30 µM (inactive),> 30 µM (inactive),NC1(c2ccc(-c3nc4ccn5c(=O)[nH]nc5c4cc3-c3ccccc3)cc2)CCC1 [MK-2206]
> 30 µM (inactive),> 30 µM (inactive),> 30 µM (inactive),> 30 µM (inactive),> 30 µM (inactive),> 30 µM (inactive),CN(C[C@@H]1COCCO1)S(=O)(=O)Nc1ccc2ccc3ncc(-c4cnn(C)c4)cc3c(=O)c2c1 [MK-2461]
> 30 µM (inactive),> 30 µM (inactive),> 30 µM (inactive),> 30 µM (inactive),> 30 µM (inactive),> 30 µM (inactive),Cn1cc(-c2cnc3ccc4ccc(CS(=O)(=O)NCc5ccccn5)cc4c(=O)c3c2)cn1 [MK-8033]
> 30 µM (inactive),> 30 µM (inactive),> 30 µM (inactive),> 30 µM (inactive),> 30 µM (inactive),> 30 µM (inactive),FC(F)(F)c1ccc(/C=C/c2nc(COc3ccc(CCCCn4ccnn4)cc3)co2)cc1 [MUBRITINIB]

SMILES,Kd [1],Kd [2],Kd [3],Kd (Ephrin type-A receptor 1),Kd [4],Kd [5]
O=C(Nc1nc2cccc(-c3ccc(CN4CCS(=O)(=O)CC4)cc3)n2n1)C1CC1 [FILGOTINIB],> 30 µM (inactive),> 30 µM (inactive),> 30 µM (inactive),> 30 µM (inactive),> 30 µM (inactive),> 30 µM (inactive)
CCCCCCCCCCCCCCCCCCOP(=O)([O-])OC1CC[N+](C)(C)CC1 [PERIFOSINE],> 30 µM (inactive),> 30 µM (inactive),> 30 µM (inactive),> 30 µM (inactive),> 30 µM (inactive),> 30 µM (inactive)
